Reference: US12029728B2, “Small molecules with anti-protozoan activity” (New Mexico Tech University Research Park Corporation, priority 2018, dated 2024)
In brackets after ≈: the same amount, converted by molar mass.

Legend:
[1] = tested on: T. cruzi epimastigotes; assay: T. cruzi epimastigote toxicity, visually assessed; assay type: cell-based, Trypanosoma cruzi; settings: 48 hours at 30° C.; for killing at 100 µM: Trypanosoma cruzi, epimastigotes, read-out: T. cruzi death @ 100 μM
Protocol: A 1:20 working dilution of T. cruzi epimastigotes was prepared in LIT1029 medium from a saturated (˜4×10^6 cells/mL) culture. 100 μL of the 1:20 working dilution was plated, and the epimastigotes were incubated with a compound of the disclosure at varying concentrations for 48 hours at 30° C. Following T. cruzi epimastigote treatment with a compound of the disclosure, the toxicity of compounds towards T. cruzi epimastigotes was visually assessed.

[2] = tested on: T. cruzi trypomastigotes; assay: ATP viability assay, reference drugs, trypomastigotes; assay type: cell-based; settings: Trypanosoma cruzi, 48 hours at 37° C.
Protocol: (§1) T. cruzi epimastigotes, amastigotes, or trypomastigotes were plated at 2×10^5 cells per well in a 96 well plate. Plated epimastigotes were prepared in LIT1029 medium, while amastigotes and trypomastigotes were collected after being passaged in ARPE cells. T. cruzi cells were treated with 0 μM, 0.39 μM, 0.78 μM, 1.56 μM, 3.125 μM, 6.25 μM, 12.5 μM, 25 μM, 50 μM, or 100 μM of nifurtimox for 48 hours at 37° C. After treatment with nifurtimox, T. cruzi viability was assessed via an ATP assay. An increase in RLU indicated the presence of ATP and viable cells.
as §1, with “benznidazole” for “nifurtimox”, “benznidazole,” for “nifurtimox,”, “RLUs” for “RLU”

[3] = tested on: T. cruzi epimastigotes; assay: ATP viability assay, reference drugs, epimastigotes; assay type: cell-based; settings: Trypanosoma cruzi, 48 hours at 37° C.
Protocol: as §1
as §1, with “benznidazole” for “nifurtimox”, “benznidazole,” for “nifurtimox,”, “RLUs” for “RLU”

[4] = tested on: T. cruzi amastigotes; assay: ATP viability assay, reference drugs, amastigotes; assay type: cell-based; settings: Trypanosoma cruzi, 48 hours at 37° C.
Protocol: as §1
as §1, with “benznidazole” for “nifurtimox”, “benznidazole,” for “nifurtimox,”, “RLUs” for “RLU”

[5] = tested on: T. cruzi amastigotes and trypomastigotes; assay: Viability of tdTomato T. cruzi amastigotes and trypomastigotes, fluorescence; assay type: cell-based, Trypanosoma cruzi; settings: 25 μM, 48 hours at 37° C.
Protocol: The viability of a mixture of T. cruzi amastigotes and trypomastigotes after exposure to 25 μM of the compounds of the disclosure was determined. 2×10^5 parasites/100 μL were plated in 96-well plates. Parasites expressing tdTomato were used to assess parasite viability using fluorescence measurements. Parasites were incubated with 25 μM of the compounds of the disclosure for 48 hours at 37° C. After the incubation period, the viability of amastigotes and trypomastigotes was assessed by measuring the fluorescence intensity at 510 nm-590 nm using a Tecan plate reader, where the presence of fluorescence indicated viable amastigotes/trypomastigotes.

[6] = tested on: L. major promastigotes; assay: L. major promastigote viability, propidium iodide flow cytometry; assay type: cell-based, Leishmania major; settings: 50 μM, 48 hours at 24° C.
Protocol: 5×10^5 L. major promastigotes were treated with vehicle control (DMSO), […], 5 μM Compound 5, 50 μM Compound 2, 50 μM Compound 5, or […] for 48 hours at 24° C. Promastigote viability was then assessed via a propidium iodide flow cytometry assay. Propidium iodide is only taken up by dead cells, and the presence of fluorescence in a promastigote sample reflects compound efficacy.

[7] = tested on: T. cruzi-infected VERO cells; assay: Treatment of T. cruzi-infected VERO cells, confocal microscopy; assay type: cell-based, Trypanosoma cruzi; settings: 5 μM, 5 days
Protocol: 2×10^4 VERO cells were plated in individual confocal dishes and allowed to adhere for 16 hours at 37° C. […] The T. cruzi-infected dishes were incubated with ˜2×10^6 T. cruzi/mL for 24 hours at 37° C. to allow for internalization of parasites. T. cruzi parasites expressed tdTomato, which allowed for visualization of parasites within cells. After the 24-hour T. cruzi incubation period, extracellular parasites were removed from culture dishes. The cells were washed 3 times with cell culture media (10% fetal bovine serum; 1% penicillin/streptomycin). Designated plates were then incubated with 5 μM Compound 2 or 5 μM Compound 7 for 5 days at 37° C. Cells were then fixed in 2% paraformaldehyde and tdTomato fluorescence in cells was assessed via confocal microscopy.

[8] = tested on: L. major-infected MDMs; assay: L. major-infected human MDMs, quantitative cell bioimaging; assay type: cell-based, Leishmania major; settings: 2 μM or 20 μM
Protocol: Human MDMs were cultured on glass slides and incubated with metacyclic L. major for 24 hours to allow for internalization of parasites. After the 24-hour L. major incubation period, extracellular parasites were removed from the culture. 24 hours after the removal of extracellular parasites, infected cells were treated with vehicle control (DMSO), 5 μM MTF, 1 μM Compound 2, 5 μM Compound 2, 10 μM Compound 2, 2 μM Compound 7, or 20 μM Compound 7. Following treatment, the cells were fixed with 2% paraformaldehyde and subsequently stained with the DNA stain Hoechst 33342. The stained cover slips were transferred onto glass slides, and quantitative cell bioimaging was utilized to determine the number of amastigotes per 500 cells using a CellInsight CX5 High Content screening platform.

[9] = tested on: T. cruzi-infected ARPE cells; assay: Treatment of T. cruzi-infected ARPE cells, imaging; assay type: cell-based, Trypanosoma cruzi
Protocol: Four confocal dishes were prepared with 10,000 ARPE cells, which were adhered overnight at 37° C. The four dishes were ARPE control cells, non-infected but 5 μM Compound 2-treated cells, non-treated but infected cells, and infected cells treated with 5 μM Compound 2. For the infected dishes, ARPE media was removed and replaced with 2 mL of infectious amastigotes and trypomastigotes from the ARPE passaged plate. The dishes were then incubated for 2 hours at 37° C. The treated dishes were incubated with 5 μM Compound 2 for 5 days at 37° C., while untreated dishes were incubated in fresh media without Compound 2 for 5 days at 37° C. After the 5-day period, cells were washed 3 times in ARPE media and fixed with 1 mL 4% paraformaldehyde. Cells were visualized using an EVOS cell imaging system. Amastigotes appeared as small, dense, and mostly birefringent in images.
The experiment above was repeated using 1 μM Compound 2.
Four confocal dishes with 10,000 ARPE cells were prepared and adhered overnight at 37° C. The four dishes were: 1) ARPE control cells; 2) non-infected cells treated with 1 μM Compound 2; 3) untreated infected cells; and 4) T. cruzi-infected cells treated with 1 μM Compound 2. For the infected dishes, ARPE media was removed and replaced with 2 mL of infectious amastigotes and trypomastigotes expressing tdTomato (from ARPE passaged plate). The dishes were then incubated overnight for 7 days at 37° C. The untreated dishes were incubated in fresh media without Compound 2 for 7 days at 37° C. After the 7-day incubation period, cells were washed 3 times in ARPE media and fixed with 1 mL 4% paraformaldehyde. tdTomato fluorescence, which is indicative of viable T. cruzi, was then observed via fluorescence microscopy.
ARPE cells were plated in confocal dishes (20,000 cells per dish) and incubated overnight at 37° C. Cells were infected with T. cruzi by incubating cells with T. cruzi amastigotes and trypomastigotes expressing tdTomato (˜2×10^5 cells in total) for 24 hours at 37° C. Uninfected cells served as controls. Following the T. cruzi incubation period, extracellular parasites were removed, and the medium was replaced with DMEM/F12 culture media with or without 1 μM Compound 2. The cells were incubated further for 24 hours at 37° C. Cells were then treated two more times with fresh DMEM/F12 culture media with or without 1 μM Compound 2 and incubated for 24 hours at 37° C. Following fixation of cells in 4% paraformaldehyde, plates were imaged for tdTomato fluorescence, which is indicative of viable T. cruzi, such that the effects of repeated Compound 2 treatment could be compared to a single treatment with Compound 2.
ARPE cells were plated in confocal dishes (20,000 cells per dish) and incubated overnight at 37° C. Cells were infected with T. cruzi by incubating cells with T. cruzi amastigotes and trypomastigotes expressing tdTomato (˜2×10^5 cells in total) for 24 hours at 37° C. before washing dishes three times with DMEM/F12 culture media. Uninfected plates served as controls. The dishes were then treated with 2 μM Compound 2 or left untreated as a control and incubated further for 5 days at 37° C. The treated dish received a single treatment of Compound 2 on day 1. Dishes were washed twice with DMEM/F12 media and fixed in 4% paraformaldehyde before being imaged using confocal microscopy. […] The other Compound 2 dishes that were not incubated with T. cruzi a second time were used as controls. Following fixation of cells in 4% paraformaldehyde, tdTomato fluorescence of the cells was assessed using confocal microscopy.
ARPE cells were plated in confocal dishes (20,000 cells per dish) and incubated overnight at 37° C. Dishes were incubated with T. cruzi amastigotes and trypomastigotes expressing tdTomato (˜2×10^5 cells) for 48 hours at 37° C. Untreated cells served as controls. Cells were then washed 3 times with cell medium, treated with 5 μM Compound 2 or left untreated as a control and incubated further for 2 days at 37° C. […]

SMILES: O=C(NO)C(c1ccccc1)c1c(-c2cccc3ccccc23)[nH]c2c1ccc1ccccc12 (centres unmarked) [Compound 4, N-hydroxy-2-(2-(naphthalen-1-yl)-1H-benzo[g]indol-3-yl)-2-phenylacetamide]
- killing at 100 µM [1]: 0%

SMILES: CC1CS(=O)(=O)CCN1/N=C/c1ccc([N+](=O)[O-])o1 (centres unmarked) [nifurtimox]
- MIC [2]: 6.25 µM (≈ 1.8 µg/mL)
- MIC [3]: 25 µM (≈ 7.18 µg/mL)
- MIC [4]: 3.12 µM (≈ 0.896 µg/mL)

SMILES: CN(C)c1ccc(C(C(=O)NO)c2c(-c3ccc4ccccc4c3)[nH]c3ccccc23)cc1 (centres unmarked) [Compound 11, 2-(4-(dimethylamino)phenyl)-N-hydroxy-2-(2-(naphthalen-2-yl)-1H-indol-3-yl)acetamide]
- Concentration at which T. cruzi epimastigote death is greater than or equal to ~99% [1]: 100 µM
- killing at 100 µM [1]: 100%

SMILES: CCCCn1c(-c2ccc3ccccc3c2)c(C(C(=O)NO)c2ccccc2)c2ccccc21 (centres unmarked) [Compound 10, 2-(1-butyl-2-(naphthalen-2-yl)-1H-indol-3-yl)-N-hydroxy-2-phenylacetamide]
- Concentration at which T. cruzi epimastigote death is greater than or equal to ~99% [1]: 25 µM
- killing at 100 µM [1]: > 50%
- toxicity to T. cruzi amastigotes and trypomastigotes [5]: most toxic

SMILES: Cc1[nH]c2ccccc2c1C(C(=O)NO)c1ccccc1 (centres unmarked) [Compound 3, N-hydroxy-2-(2-methyl-1H-indol-3-yl)-2-phenylacetamide]
- killing at 100 µM [1]: 0%

SMILES: NC(=O)C(c1ccccc1)c1c(-c2ccc3ccccc3c2)[nH]c2ccccc12 (centres unmarked) [Compound 8, 2-(2-(naphthalen-2-yl)-1H-indol-3-yl)-2-phenylacetamide]
- Concentration at which T. cruzi epimastigote death is greater than or equal to ~99% [1]: 50 µM
- killing at 100 µM [1]: 100%

SMILES: CC(C)c1ccc(C(C(=O)NO)c2c(-c3ccc4ccccc4c3)[nH]c3ccccc23)cc1 (centres unmarked) [Compound 5, N-hydroxy-2-(4-isopropylphenyl)-2-(2-(naphthalen-2-yl)-1H-indol-3-yl)acetamide]
- efficacy on L. major promastigote survival [6]: higher efficacy than MTF or the vehicle control

SMILES: Cn1c(-c2ccc3ccccc3c2)c(C(C(=O)NO)c2ccccc2)c2ccccc21 (centres unmarked) [Compound 7, N-hydroxy-2-(1-methyl-2-(naphthalen-2-yl)-1H-indol-3-yl)-2-phenylacetamide]
- T. cruzi infection in VERO cells [7]: eradication of T. cruzi infection
- Concentration at which T. cruzi epimastigote death is greater than or equal to ~99% [1]: ≥100 µM
- killing at 100 µM [1]: 100%
- number of parasites per cell [8]: decreased the number of parasites per cell
- parasitic burden ([9]; 1 μM, 3 days): decreased parasitic burden
- protection from a recurring infection ([9]; 1 μM, 3 days): not protected from a recurring infection
- T. cruzi in ARPE cells (CherryTomato fluorescence) ([9]; 2 μM, two days): eradicated T. cruzi
- T. cruzi infections in ARPE cells ([9]; 2.5 μM, 3 days): minimal
- T. cruzi in ARPE cells ([9]; 5 μM, 3 days): eradicated
- intracellular T. cruzi and re-infection ([9]; single dose of 2 μM, 2 days): killed intracellular T. cruzi and protected the cells from re-infection
- toxicity to T. cruzi amastigotes and trypomastigotes [5]: most toxic

SMILES: N#CC(c1ccccc1)c1c(-c2ccc3ccccc3c2)[nH]c2ccccc12 (centres unmarked) [Compound 9, 2-(2-(naphthalen-2-yl)-1H-indol-3-yl)-2-phenylacetonitrile]
- Concentration at which T. cruzi epimastigote death is greater than or equal to ~99% [1]: ≥100 µM
- killing at 100 µM [1]: 100%

SMILES: O=C(Cn1ccnc1[N+](=O)[O-])NCc1ccccc1 [benznidazole]
- MIC [2]: > 100 µM
- MIC [3]: > 100 µM
- MIC [4]: 100 µM (≈ 26 µg/mL)
- clearance of T. cruzi infection in ARPE cells ([9]; 2 μM, 2 days): not cleared from T. cruzi infection

SMILES: O=C(NO)C(c1ccccc1)c1c(-c2ccccc2)[nH]c2ccccc12 (centres unmarked) [Compound 1, N-hydroxy-2-phenyl-2-(2-phenyl-1H-indol-3-yl)acetamide]
- Concentration at which T. cruzi epimastigote death is greater than or equal to ~99% [1]: 100 µM
- killing at 100 µM [1]: 100%
- number of intracellular parasites in ARPE culture ([9]; 10 μM once per day for 2 days): decreased the number of intracellular parasites
- toxicity to T. cruzi amastigotes and trypomastigotes [5]: most toxic

SMILES: COc1ccc(C(C(=O)NO)c2c(-c3ccc4ccccc4c3)[nH]c3ccccc23)cc1 (centres unmarked) [Compound 6, N-hydroxy-2-(4-methoxyphenyl)-2-(2-(naphthalen-2-yl)-1H-indol-3-yl)acetamide]
- killing at 100 µM [1]: 0%
